Assay results: patent US10351566B2, “Therapeutic compounds for pain and synthesis thereof” (priority 2015, dated 2019)
Marks after values point to notes of the source that are not given here.

Legend:
Type in all cases: in vivo
[1] = system: Taxol-induced neuropathic pain; test: Taxol-induced neuropathic pain in mice, oral route
Experimental: (§1) Study outline in brief: Animals were dosed daily with Taxol for a period of 8 consecutive days (Day 0 to Day 7). On study day 8, prior to drug dosing, the decrease in withdrawal force (tactile allodynia) was verified by applying the von Frey test. After assigning the animals to their treatment groups, the animals were treated daily for a period of 5 days with either vehicle or Formula 1 at different doses. Gabapentin at a dose of 150 mg/kg was dosed only on days of testing (day 8 and day 14).
The activity of Formula 1 following oral administration was assessed using the Taxol model (see Study Outline in section 7.1). […] Gabapentin dosed at 150 mg/kg was active for a period of 4 h post-dosing.

[2] = system: CCI-induced neuropathic pain; test: CCI model in mice, IP route; settings: CCl model
From the text: IP route of administration was used for initial proof of principle studies with Formula 1. However, the chosen route of administration in most of the studies conducted with Formula 1 was either SC or PO. A brief protocol outline is provided in each section, for the purpose of understanding the results without elaborating on all the detailed procedures.
Table 7 summarizes the activity of Formula 1 in mice models of neuropathic pain following repeated daily administration using different routes of administration. […] Treatment with Formula 1 show activity without CNS effect.

[3] = system: CCI-induced neuropathic pain; test: Chronic constriction injury (CCI) model in mice, SC route; settings: for Dose of maximum activity / Duration of activity at maximum effect / Level of activity (% of maximum effect-baseline) / Peak of activity (T): CCl model, SC, mice
Experimental: Study outline in brief: The sciatic nerve of mice was exposed under anesthesia, and 3 loose ligations were placed around the nerve. Animals were allowed to recover for 3 days. Tactile allodynia (von Frey testing) and thermal (hot at 50±1° C. and cold at 2±1° C.) hyperalgesia were then assessed. Animals that experienced tactile allodynia were assigned to their treatment groups (vehicle, gabapentin and Formula 1 at different doses). Animals were subsequently treated daily for a period of 5 days with either vehicle or Formula 1 at different doses. Gabapentin at a dose of 150 mg/kg was dosed only on days of testing (day 3 and day 7).

[4] = system: Taxol-induced neuropathic pain; test: Taxol-induced neuropathic pain in mice, SC administration
Experimental: as §1
Response to heat stimuli was assessed using the hotplate apparatus set at 50ΥC. […] At baseline prior to Taxol dosing, the animals' response time to heat was 28.10±1.60 sec (vehicle-treated group). […] However, it is interesting to note that the beneficial activity of Formula 1 on heat hyperalgesia was more noticeable on study day 14, following repeated daily dosing of the compound, than on study day 8 following a single dose (Table 6).

**Q.** With `NCC1(CC(=O)O)CCCCC1` [Gabapentin, gabapentin, reference compound] as the compound, how does the “period of activity post-dosing” value ([1]; Taxol mice, 150 mg/kg) read?
**A.** 4 h

**Q.** What about the “Dose of maximum activity” value ([1]; Taxol model, PO, mice) of the same compound?
**A.** 150 mg/kg

**Q.** What about the “Duration of activity at maximum effect” value ([1]; Taxol model, PO, mice) of the same compound?
**A.** 4 H

**Q.** And the “Level of activity (% of maximum effect-baseline)” value ([1]; Taxol model, PO, mice)?
**A.** 100%

**Q.** What about the “Peak of activity (T)” value ([1]; Taxol model, PO, mice) of the same compound?
**A.** 2-4 H

**Q.** And the “Dose of maximum activity” value [2]?
**A.** 150 mg/kg

**Q.** And the “Duration of activity at maximum effect” value [2]?
**A.** 4-6 H

**Q.** And the “Peak of activity (T)” value [2]?
**A.** 2-3 H

**Q.** And the “Level of activity (% of maximum effect-baseline)” value ([2]; repeated daily administration)?
**A.** 66%

**Q.** And the “response time to cold plate” value ([3]; CCI mice, 150 mg/kg)?
**A.** increased the response time of the animals to values that were higher than the baseline value

**Q.** What about the “withdrawal force (von Frey)” value ([3]; CCI mice, 150 mg/kg) of the same compound?
**A.** significant, but not complete, reversal

**Q.** And the “Dose of maximum activity” value ([3]; first SC line)?
**A.** 150 mg/kg

**Q.** And the “Duration of activity at maximum effect” value ([3]; first SC line)?
**A.** 4-6 H

**Q.** What about the “Level of activity (% of maximum effect-baseline)” value ([3]; first SC line) of the same compound?
**A.** 64%

**Q.** What about the “Peak of activity (T)” value ([3]; first SC line) of the same compound?
**A.** 2-3 H

**Q.** What about the “Level of activity (% of maximum effect-baseline)” value ([3]; second SC line (readout not given)) of the same compound?
**A.** >100%

**Q.** What about the “Dose of maximum activity” value ([3]; second SC line) of the same compound?
**A.** 150 mg/kg

**Q.** What about the “Duration of activity at maximum effect” value ([3]; second SC line) of the same compound?
**A.** 4-6 H

**Q.** And the “Peak of activity (T)” value ([3]; second SC line)?
**A.** 2-3 H

**Q.** And the “response time to heat (50° C.), Mean” value ([4]; 150 mg/kg, Day 0 Pre-Taxol)?
**A.** 28.5 s

**Q.** And the “response time to heat (50° C.), Mean” value ([4]; 150 mg/kg, Day 8, 1 h)?
**A.** 18.9* sec

**Q.** What about the “response time to heat (50° C.), Mean” value ([4]; 150 mg/kg, Day 8, 2 h) of the same compound?
**A.** 22.5* sec

**Q.** And the “response time to heat (50° C.), Mean” value ([4]; 150 mg/kg, Day 8, 4 h)?
**A.** 16.7 s

**Q.** And the “response time to heat (50° C.), Mean” value ([4]; 150 mg/kg, Day 8, 6 h)?
**A.** 13.8 s

**Q.** And the “response time to heat (50° C.), Mean” value ([4]; 150 mg/kg, Day 8 Pre-dosing)?
**A.** 11.1 s

**Q.** And the “response time to heat (50° C.), Mean” value ([4]; 150 mg/kg, Day 14, 1 h)?
**A.** 25.1* sec

**Q.** What about the “response time to heat (50° C.), Mean” value ([4]; 150 mg/kg, Day 14, 2 h) of the same compound?
**A.** 25.0 s

**Q.** What about the “response time to heat (50° C.), Mean” value ([4]; 150 mg/kg, Day 14, 4 h) of the same compound?
**A.** 25.1* sec

**Q.** What about the “response time to heat (50° C.), Mean” value ([4]; 150 mg/kg, Day 14, 6 h) of the same compound?
**A.** 18.7* sec

**Q.** And the “response time to heat (50° C.), Mean” value ([4]; 150 mg/kg, Day 14 Pre-dosing)?
**A.** 11.2 s

**Q.** What about the “response time to heat (50° C.), Mean” value ([4]; 150 mg/kg, Day 17, No dosing) of the same compound?
**A.** 11.5 s

**Q.** And the “period of increase in withdrawal force (von Frey)” value ([4]; Taxol mice, 150 mg/kg)?
**A.** 4 h

**Q.** What about the “Dose of maximum activity” value ([4]; Taxol model, SC, mice) of the same compound?
**A.** 150 mg/kg

**Q.** And the “Duration of activity at maximum effect” value ([4]; Taxol model, SC, mice)?
**A.** 4 H

**Q.** And the “Level of activity (% of maximum effect-baseline)” value ([4]; Taxol model, SC, mice)?
**A.** 100%

**Q.** What about the “Peak of activity (T)” value ([4]; Taxol model, SC, mice) of the same compound?
**A.** 2-4 H
